Tested on: chronically alcoholised rats
Experiment: consumption of 15% ethanol solution after deprivation; body weight
Type: in vivo, rat
Description: FIG. 12 is a graphic representation showing the consumption of 15% ethanol solution after deprivation in ml (*−p<0.01 on 1st day of alcoholisation SKQ-1 to negative control; #—p<0,05 for average ethanol consumption for 1-36 days SKQ-1 to negative control).
Male albino rats had free access to a 15% ethanol solution, as well as to food and water. After 6 months of alcoholisation, animals with average consumption more than 11 ml of 15% ethanol solution were divided into two even groups and subjected to the following treatment. The Negative Control group (n=16) (chronically alcoholised rats) were orally administered 1 ml per kg of isotonic 0.9% NaCl solution every two days for 20 days during alcohol deprivation. The SkQ1 group (n=17) (chronically alcoholised rats) were orally administered 1 ml per kg of SkQ1 250 nM solution every two days for 20 days during alcohol deprivation. The Intact Control group (n=10) (animals had no previous contact with ethanol) were orally administered 1 ml per kg of normal physiological solution every two days for 20 days.
After behavioral testing, ethanol consumption of 15% solution was measured for 45 days. The level of ethanol consumption during first day in the SkQ1 group was lower (p<0.01) than in the Negative Control group. The decreased ethanol consumption during first day indicates lower level of ethanol craving after SkQ1 administration. […]

## CC1=C(C)C(=O)C(CCCCCCCCCC[P+](c2ccccc2)(c2ccccc2)c2ccccc2)=CC1=O [SkQ1, plastoquinonyl decyltriphenyl-phosphonium]
p<0.05
  average ethanol consumption during the next month, lower than Negative Control: ~2 ×
Vs Negative Control, p<0.01
  level of ethanol consumption during first day: lower
